In patent publication US11925633B2, “Drug for preventing and/or treating dementia” (NATIONAL CEREBRAL AND CARDIOVASCULAR CENTER, priority 2016, dated 2024):
Like-named read-outs stand apart in the source and are kept apart here.

How the values were obtained:
[1] = tested on: APP-SwDI transgenic mice; test: Immunohistochemistry for Aβ deposition on the cerebral blood vessel wall (hippocampus region); format: in vivo, mouse; settings: 8-month-old mice, drug-containing feed from 4-week-old to 8-month-old; compared to APP-SwDI mice on normal feed
Protocol: The cilostazol-containing feed, the taxifolin-containing feed, and the feed containing cilostazol and taxifolin were administered from 4-week-old to 8-month-old. The concentration of cilostazol in the cilostazol-containing feed was 0.3 wt %, and the concentration of taxifolin in the taxifolin-containing feed was 3 wt %. The concentration of cilostazol and the concentration of taxifolin in the feed containing cilostazol and taxifolin were respectively 0.3 wt % and 3 wt %. All the APP-SwDI transgenic mice used were homozygous male mice. The 4-week-old APP-SwDI transgenic mice are considered to be in the initial stage of accumulation of Aβ in the brain blood vessel, i.e., the initial stage of cerebral amyloid angiopathy, and neuronal loss is considered to be not progressing much in this stage. The brain of an 8-month-old APP-SwDI transgenic mice was perfusion fixed using 4% para-formaldehyde, the removed brain was dehydration-treated for a whole day. A paraffin block of the fixed brain tissue was prepared, and the paraffin block was sliced in 6 microns by microtome. […] The hippocampus region was traced in a section which was cut 1 mm outside the midline, and the percentage of the Aβ accumulation area in the region of interest was measured by using image analysis software ImageJ (National Institutes of Health. USA). […]

[2] = tested on: APP-SwDI transgenic mice; test: Carbon dioxide gas inhalation test (cerebral blood flow, laser speckle blood flow imager); format: in vivo, mouse; settings: 12-month-old mice; for cerebral blood flow increase rate after 5% CO2 supply: feed from 4-week-old to 12-month-old, compared to APP-SwDI mice on normal feed; for time course of the cerebral blood flow increase rate after 5% CO2 supply: measured for 5 min after start of 5% CO2; for significance of the difference in cerebral blood flow increase rate versus normal feed group (repeated measurement and variance analysis): versus APP-SwDI mice on normal feed
Protocol: Analysis was performed by using 12-month-old C57BL/6J mice administered with a normal feed (n=4), APP-SwDI transgenic mice administered with a normal feed (n=10), APP-SwDI transgenic mice administered with a cilostazol-containing feed (n=4), APP-SwDI transgenic mice administered with a taxifolin-containing feed (n=5), and APP-SwDI transgenic mice administered with a feed containing cilostazol and taxifolin (n=7), totaling 30 mice. The feeds containing cilostazol, taxifolin, or cilostazol and taxifolin were administered from 4-week-old to 12-month-old. The concentration of cilostazol in the cilostazol-containing feed was 0.3 wt % and the concentration of taxifolin in the taxifolin-containing feed was 3 wt %. All the APP-SwDI transgenic mice used were homozygous male mice. The mice were anesthetized by intraperitoneal injection of α-chloralose and urethane. Then, endotracheal intubation was performed and the baseline of the cerebral blood flow was measured. Thereafter, 5% CO2 was supplied, and the cerebral blood flow was sequentially measured for 5 min. Relative increase rate was measured from the changes in the cerebral blood flow between the baseline and after 5% CO2 supply. The cerebral blood flow was measured by a laser speckle blood flow imager (OZ-2, OMEGAWAVE, INC.). FIG. 2 is a graph showing mean of relative increase rate of the cerebral blood flow after supply of 5% CO2 in the mice of each group. […] Error bars show standard error.

[3] = tested on: APP-SwDI transgenic mice; test: Water maze test (Morris water maze, with probe test); format: in vivo, mouse; settings: 8-month-old mice; for residence time in Zone-1 in the probe test (visuospatial memory): fifth day, platform removed, 60 seconds; for swimming time to reach the platform (visuospatial memory): first day to fourth day, 4 trials per day
Protocol: The cilostazol-containing feed, the taxifolin-containing feed, and the feed containing cilostazol and taxifolin were administered from 4-week-old to 8-month-old. The concentration of cilostazol in the cilostazol-containing feed was 0.3 wt %, and the concentration of taxifolin in the taxifolin-containing feed was 3 wt %. The concentration of cilostazol and the concentration of taxifolin in the feed containing cilostazol and taxifolin were respectively 0.3 wt % and 3 wt %. All the APP-SwDI transgenic mice used were homozygous male mice. The water maze test is a test for evaluating the visuospatial cognitive ability of mouse by utilizing the habit of avoiding water and escaping therefrom. The water maze used in this experiment was Morris water maze manufactured by Brain Science Idea, having a circular pool of a water tank entirely painted black with inner diameter 120 cm, wall height 30 cm. One transparent acrylic circular platform for escape with diameter 10 cm, height 10 cm was set at 30 cm from the center of the pool and 30 cm from the periphery. Clues such as poster, photograph and the like were arranged on the wall so that the mice could memorize various spatial arrangements in the surroundings, and the locations of these clues were always unchanged during the experiment. The pool was filled with water to a depth of 11 cm, and a platform was installed at about 1 cm below the water surface as in FIG. 3(A). In all tests, Zone-2 in FIG. 3(B) was set as a start position. Zone-1 to Zone-4 show quadrant regions in the circular pool. The mice were gently placed on the water surface while facing the wall of the pool so that they could not see the location of the platform. The tests were performed from the first day to the fourth day, 4 trials per day. In each trial, the total swimming distance and the time required for reaching the platform (swimming time) were measured. […] On the fifth day, the mice were made to swim for 60 seconds with the platform removed from the pool (probe test). In the test, the residence time in Zone-1 where the goal was placed from the first day to the fourth day was measured. […] Error bars show standard error. […] Error bars show standard error.

[4] = mouse, in vivo
Protocol: (§1) In the “APP-SwDI transgenic mice administrated with a feed containing cilostazol and taxifolin (n=3)”, as mentioned above, the blood concentration of this mouse was measured after administration of the feed containing cilostazol and taxifolin.

[5] = tested on: APP-SwDI transgenic mice; settings: compared to APP-SwDI mice on control feed; non-patent document 3; cited from earlier work
[6] = tested on: amyloid beta; settings: administration of cilostazol; non-patent documents 1, 2; cited from earlier work
[7] = administration of cilostazol; non-patent documents 1, 2; cited from earlier work
[8] = administration of cilostazol; cilostazol package insert; cited from earlier work
[9] = tested on: APP-SwDI transgenic mice; test: Survival curve (cumulative survival rate); format: in vivo, mouse; settings: observation within 500 days after birth; slaughter not included
Description: 1, 2014 to Nov. 30, 2015, were used to plot and analyze a survival curve of the mice.

[10] = tested on: APP-SwDI transgenic mice; test: Hair loss score (fighting); format: in vivo, mouse; settings: 13-month-old mice; compared to APP-SwDI mice on normal feed
Description: Hair loss occurs when mice fight. Thus, the extent of hair loss of each mouse was described in 4 grades of Grade: 0-3 and taken as a hair loss score. Almost normal state is Grade: 0 and hair loss over nearly whole body is Grade: 3. Less than 50% of the whole body surface was classified as Grade: 1 and not less than 50% was classified as Grade: 2.
The information of mice was concealed and two evaluators independently evaluated the hair loss score. Mean of each evaluation was taken as the hair loss score of the mice.
Error bars show standard error.

[11] = tested on: APP-SwDI transgenic mice; test: Y-maze test (alternation response rate); format: in vivo, mouse; settings: 13-month-old mice, feed from 4-week-old to 13-month-old; test for 8 minutes
Protocol: The cilostazol-containing feed, the taxifolin-containing feed, and the feed containing cilostazol and taxifolin were administered from 4-week-old to 13-month-old. The concentration of cilostazol in the cilostazol-containing feed was 0.3 wt %, and the concentration of taxifolin in the taxifolin-containing feed was 3 wt %. The concentration of cilostazol and the concentration of taxifolin in the feed containing cilostazol and taxifolin were respectively 0.3 wt % and 3 wt %. All the APP-SwDI transgenic mice used were homozygous male mice. In the Y-maze test, according to the general practice method, the alternation response rate was measured from the results of the test for 8 minutes. […] FIG. 7 is a graph showing an average alternation response rate of the mice of each group. Error bars show standard error.

[12] = Blood concentration after administration of the feed containing cilostazol and taxifolin
Protocol: as §1

Compound | intracerebral Aβ accumulation amount [1] | cerebral blood flow increase rate after 5% CO2 supply [2] | time course of the cerebral blood flow increase rate after 5% CO2 supply [2] | significance of the difference in cerebral blood flow increase rate versus normal feed group (repeated measurement and variance analysis) [2] | residence time in Zone-1 in the probe test (visuospatial memory) [3] | swimming time to reach the platform (visuospatial memory) [3] | presence in the blood (compound or its metabolite) [4] | alternation response in the Y-maze test [5] | intracerebral accumulation of amyloid beta [6] | reduction of cognitive function [7] | cerebral blood flow in the vertebral artery, internal carotid artery, cerebral cortex, hypothalamus and the like [8] | death of mice (cumulative survival rate) [9] | hair loss score (Grade 0-3) [10] | alternation response rate (working memory) [11] | presence in the blood (compound or its metabolite) [12]
O=C1CCc2cc(OCCCCc3nnnn3C3CCCCC3)ccc2N1 [cilostazol, 6-[4-(1-cyclohexyl-1H-tetrazol-5-yl)butoxy]-3,4-dihydrocarbostyril] | significant decrease | increased | increased after a certain period of time after 5% CO2 supply | a significant difference was absent | visuospatial memory disorder improving effect of cilostazol was considered to be limited | visuospatial memory disorder improving effect of cilostazol was considered to be limited | detected in the blood | increased | suppressed | suppressed | increases |  |  |  | 
O=C1c2c(O)cc(O)cc2O[C@H](c2ccc(O)c(O)c2)[C@H]1O [taxifolin] | significant decrease | increased | rapidly increased after 5% CO2 supply | a significant difference was absent | the same results as in the C57BL/6J mouse | the same results as in the C57BL/6J mouse |  |  |  |  |  | died clearly more than other mice | clearly severe hair loss | significant improvement was not observed | detected in the blood
